Laboratory results published in patent US9961896B2, “Cleaning liquid” (priority 2013, dated 2018).

Experiments:
Assay in all cases: EN 1276 bactericidal activity
Type in all cases: cell-based
Settings in all cases: diluted to 1:20 v/v; 5 minutes at 20° C.; dirty conditions
[1] = system: Enterococcus hirae (NCIMB 8192)
[2] = system: Escherichia coli (NCTC 10418)
[3] = system: Staphylococcus aureus (NCTC 10788)
[4] = system: Pseudomonas aeruginosa (NCI MB 10421)

Measured: passes the requirements of EN 1276 for bactericidal activity

CCCCCCCCCC[N+](C)(C)CCCCCCCCCC.[Cl-] [Acticide DDQ50, Didecyl Dimethyl Ammonium Chloride]
does not pass: all assays above

O=[N+]([O-])C(Br)(CO)CO [Acticide L, Bronopol]
does not pass: all assays above

Cc1cc(O)ccc1Cl [Acticide PCMC, P-chloro-m-cresol]
does not pass: all assays above

Benzalkonium chloride [Acticide BAC50M]
does not pass: all assays above
